How the values were obtained:
HepG2 = assay: Cell cytotoxicity assay, HEPG2; assay type: cell-based; details: HepG2 cells, 5 days at 37° C., XTT dye
Experimental: (§1) Cells were seeded 24 hours prior to compound addition. Each test compound (serially diluted from 100 μM) was added to Huh7 (1.5×10^4 cells/well) or HepG2 (1.5×10^4 cells/well), and allowed to incubate for 5 days at 37° C. A medium only control was used to determine the minimum absorbance value and an untreated cell value. At the end of the growth period, XTT dye from Polysciences Europe GmbH was added to each well. The absorbance at 450 nm with a reference wavelength of 600 nm was read with a Sunrise (Tecan) using the medium only control wells as blanks. The 50% inhibition value (CC50) was determined by comparing the degree of inhibition (compared to cell control) plotted against compound concentration. Results from the dilution series were fitted to a sigmoidal dose-response curve.
(§2) Compounds of the invention were evaluated in these assays to assess the stability in human intestinal S9 fraction (HIS9) and human liver S9 fraction (HLS9), and for Cell Cytotoxicity in HUH7, HEP3B and HEPG2 cells.

Huh7 = assay: Cell cytotoxicity assay, HUH7; assay type: cell-based; details: Huh7 cells, 5 days at 37° C., XTT dye
Experimental: as §1, §2

[1] = Stability in human intestinal S9 fraction (HIS9); assay type: in vitro ADME; details: human intestinal S9 0.4 mg protein/mL, 5 μM test compound, 37° C.; for microsomal CLint at 5 μM: intestinal S9 fraction, pH 7.4
Experimental: (§3) Stability in Human Intestinal S9 Fraction (HIS9) and in Human Liver S9 Fraction (HLS9),
(§4) Stock solutions of each test compound (10 mM) were prepared in DMSO and stored at −20° C. Prior to the start of the experiment, the test compounds were diluted to 500 μM in 50% acetonitrile in water. The reaction mixture was prepared in a total volume of 250 μL containing 5 mM MgC2, 1 mM NADPH and 5 μM test compound in 50 mM potassium phosphate buffer (pH 7.4). The reaction was initiated by addition of human liver or intestinal S9 fraction with a final concentration of 0.4 mg protein/mL (Xeno Tech). The reaction mixture was incubated on an orbital shaker at 37° C. At the desired time points (0, 10, 30 and 60 minutes) aliquots of 50 μL were taken and the reaction was stopped by mixing with 150 μL acetonitrile containing internal standard. Standard solutions of each test compound were prepared from the 500 μM solution by diluting the solution to a final concentration of 5 μM in boiled human S9 (0.4 mg protein/mL), 5 mM MgCl2 and 50 mM potassium phosphate buffer (pH 7.4). The standards and samples were kept on ice for 30 min then centrifuged at 3 000 g for 20 minutes at 10° C., there after 10 μL of supernatant was mixed with 200 μL 50% acetonitrile in water. 0.5 μM of each test compound in 50% acetonitrile in water was injected into the LC/MS-MS to determine the daughter ion, declustring potential (DP), collision energy (CE) and collision cell exit potential (CXP) in order to develop a LC/MS-MS method. The compounds were separated using a C18 column with a QTRAP5500 system. The mobile phase consisted of solvent A (98% water, 2% acetonitrile, 0.1% acetic acid or 10 mM ammonium acetate) and solvent B (80% acetonitrile, 20% water, 0.1% acetic acid or 10 mM ammonium acetate). Elution of the compounds was performed by using a gradient of solvent B from 0% to 100%. 5 μL of standard points and samples were injected for analysis with QTRAP5500.
(§5) The amount of parent compound was determined on the basis of the peak area for each time point compared to standard which was set to 5 μM. Intrinsic clearance (CLint) and half-life (t1/2) were determined from the disappearance curves of the test compound using Excel software.

[2] = Stability in human liver S9 fraction (HLS9); assay type: in vitro ADME; details: human liver S9 0.4 mg protein/mL, 5 μM test compound, 37° C.; for microsomal CLint at 5 μM: liver S9 fraction, pH 7.4
Experimental: as §3, §4, §5

Row | Compound | CLint Intestinal S9 [1] [µL/min/mg] | CLint Liver S9 [2] [µL/min/mg] | CC50 (HepG2) [nM] | CC50 (Huh7) [nM] | microsomal CLint at 5 μM [1] [µL/min/mg] | microsomal CLint at 5 μM [2] [µL/min/mg]
1 | CCCC(CCC)COC(=O)C(Cc1ccccc1)NP(=O)(OCC1OCC(n2ccc(N)nc2=O)O1)Oc1ccccc1 (mixture of isomers) [13 diamix 4:1] | 27 | 85 | 163 | 663 | – | –
2 | CCC[C@@H](C)OC(=O)[C@H](C)NP(=O)(OC[C@H]1OC[C@@H](n2ccc(N)nc2=O)O1)Oc1ccccc1 (single isomer, unassigned) [30 dia-2] | – | – | – | – | 11 | 120
3 | CC[C@H](C)OC(=O)[C@H](C)NP(=O)(OC[C@H]1OC[C@@H](n2ccc(N)nc2=O)O1)Oc1ccccc1 (single isomer, unassigned) [31 dia-2] | 6 | – | – | – | – | 8
4 | CC[C@@H](C)OC(=O)[C@H](C)NP(=O)(OC[C@H]1OC[C@@H](n2cc(F)c(N)nc2=O)O1)Oc1ccccc1 (single isomer, unassigned) [32 dia-2] | – | – | – | – | 8 | 27
5 | CC(C)OC(=O)[C@H](C)NP(=O)(OC[C@H]1OC[C@@H](n2ccc(N)nc2=O)O1)Oc1cccc2ccccc12 (single isomer, unassigned; dia-1) [5 dia-1] | 21 | 32 | 107 | 465 | – | –
6 | C[C@H](NP(=O)(OC[C@H]1OC[C@@H](n2ccc(N)nc2=O)O1)Oc1cccc2ccccc12)C(=O)OC1CCCCC1 (single isomer, unassigned; dia-1) [6 dia-1] | 36 | 91 | 92 | 258 | – | –
7 | Nc1ccn([C@@H]2CO[C@H](COP(=O)(N[C@@H](Cc3ccccc3)C(=O)OC3CCCCC3)Oc3ccc(Br)cc3)O2)c(=O)n1 (single isomer, unassigned; dia-1) [7 dia-1] | 147 | 148 | 240 | 1020 | – | –
8 | CCCC(CCC)COC(=O)[C@H](C)NP(=O)(OC[C@H]1OC[C@@H](n2ccc(N)nc2=O)O1)Oc1ccccc1 (single isomer, unassigned; dia-1) [8 dia-1] | – | – | 7 | 123 | – | –
9 | C[C@H](NP(=O)(OC[C@H]1OC[C@@H](n2ccc(N)nc2=O)O1)Oc1cccc2ccccc12)C(=O)OCc1ccccc1 (single isomer, unassigned; dia-1) [9 dia-1] | 171 | 133 | 23 | 164 | – | –
10 | Nc1ccn([C@@H]2CO[C@H](COP(=O)(N[C@@H](Cc3ccccc3)C(=O)OCc3ccccc3)Oc3cccc(C4CC4)c3)O2)c(=O)n1 (single isomer, unassigned; dia-1) [12 dia-1] | 300 | 182 | 481 | 4330 | – | –
11 | CCCC(CCC)COC(=O)[C@H](C)NP(=O)(OC[C@H]1OC[C@@H](n2ccc(N)nc2=O)O1)Oc1cccc2ccccc12 (single isomer, unassigned; dia-1) [14 dia-1] | 30 | 88 | 16 | 216 | – | –
12 | COC(=O)[C@H](C)NP(=O)(OC[C@H]1OC[C@@H](n2ccc(N)nc2=O)O1)Oc1ccc(Br)cc1 (single isomer, unassigned; dia-1) [27 dia-1] | 11 | 38 | 151 | 1440 | – | –
13 | CC(C)OC(=O)[C@H](C)NP(=O)(OC[C@H]1OC[C@@H](n2ccc(N)nc2=O)O1)Oc1cccc2ccccc12 (single isomer, unassigned; dia-2) [5 dia-2] | 13 | 31 | 114 | 602 | – | –
14 | C[C@H](NP(=O)(OC[C@H]1OC[C@@H](n2ccc(N)nc2=O)O1)Oc1cccc2ccccc12)C(=O)OC1CCCCC1 (single isomer, unassigned; dia-2) [6 dia-2] | 25 | 61 | 48 | 316 | – | –
15 | Nc1ccn([C@@H]2CO[C@H](COP(=O)(N[C@@H](Cc3ccccc3)C(=O)OC3CCCCC3)Oc3ccc(Br)cc3)O2)c(=O)n1 (single isomer, unassigned; dia-2) [7 dia-2] | 27 | 60 | 58 | 134 | – | –
16 | C[C@H](NP(=O)(OC[C@H]1OC[C@@H](n2ccc(N)nc2=O)O1)Oc1cccc2ccccc12)C(=O)OCc1ccccc1 (single isomer, unassigned; dia-2) [9 dia-2] | 127 | 94 | 16 | 158 | – | –

The next lines start with results.

Row | CLint Intestinal S9 [1] [µL/min/mg] | CLint Liver S9 [2] [µL/min/mg] | Compound | CC50 (HepG2) [nM] | CC50 (Huh7) [nM] | microsomal CLint at 5 μM [1] [µL/min/mg] | microsomal CLint at 5 μM [2] [µL/min/mg]
17 | 87 | 167 | CCC(CC)COC(=O)[C@H](C)NP(=O)(OC[C@H]1OC[C@@H](n2ccc(N)nc2=O)O1)Oc1ccccc1 (single isomer, unassigned; dia-1) [15 dia-1] | 37 | 25 | – | –
18 | 6 | 6 | CC(C)OC(=O)[C@@H](C)NP(=O)(OC[C@H]1OC[C@@H](n2ccc(N)nc2=O)O1)Oc1ccccc1 (single isomer, unassigned; dia-1) [17 dia-1] | 50000 | 50000 | – | –
19 | 26 | 19 | C[C@H](NP(=O)(OC[C@H]1OC[C@@H](n2ccc(N)nc2=O)O1)Oc1ccccc1)C(=O)OCc1ccccc1 (single isomer, unassigned; dia-1) [19 dia-1] | 18 | 91 | – | –
20 | 21 | 45 | CCC[C@H](C)OC(=O)[C@H](C)NP(=O)(OC[C@H]1OC[C@@H](n2ccc(N)nc2=O)O1)Oc1ccccc1 (single isomer, unassigned; dia-1) [20 dia-1] | 74 | 216 | – | –
21 | 29 | 61 | CCC(CC)OC(=O)[C@H](C)NP(=O)(OC[C@H]1OC[C@@H](n2ccc(N)nc2=O)O1)Oc1ccccc1 (single isomer, unassigned; dia-1) [21 dia-1] | 163 | 574 | – | –
22 | 52 | 49 | C[C@H](NP(=O)(OC[C@H]1OC[C@@H](n2ccc(N)nc2=O)O1)Oc1cccc2ccccc12)C(=O)OC1CCCC1 (single isomer, unassigned; dia-1) [22 dia-1] | 12 | 33 | – | –
23 | 27 | 180 | CC[C@@H](C)OC(=O)[C@H](C)NP(=O)(OC[C@H]1OC[C@@H](n2ccc(N)nc2=O)O1)Oc1cccc(C2CCC2)c1 (single isomer, unassigned; dia-1) [33 dia-1] | – | – | – | –
24 | – | 6 | CC(C)OC(=O)[C@@H](C)NP(=O)(OC[C@H]1OC[C@@H](n2ccc(N)nc2=O)O1)Oc1ccccc1 (single isomer, unassigned; dia-2) [17 dia-2] | – | 50000 | – | –
25 | 20 | 300 | CCCC(CCC)COC(=O)[C@H](C)NP(=O)(OC[C@H]1OC[C@@H](n2ccc(N)nc2=O)O1)Oc1ccc(Br)cc1 (single isomer, unassigned; dia-2) [23 dia-2] | – | – | – | –
26 | 75 | 230 | CC[C@@H](C)OC(=O)[C@H](C)NP(=O)(OC[C@H]1OC[C@@H](n2ccc(N)nc2=O)O1)Oc1cccc(C2CCC2)c1 (single isomer, unassigned; dia-2) [33 dia-2] | – | – | – | –

— patent publication US11447511B2, “Dioxolane analogues of uridine for the treatment of cancer” (MEDIVIR AB, priority 2014, dated 2022)
